Experimental data: patent US11503828B2, “Antibacterial hydrophilic compound and use thereof” (SHENZHEN UNIVERSITY, priority 2017, dated 2022)

Key:
[1] = system: Escherichia coli; assay: Antibacterial activity of modified PET cloth by plate counting method; assay type: cell-based; set-up: Antibacterial activity, Washing one time: concentration or dose not given beside the values; details: E. coli
Description: (§1) The antibacterial hydrophilic compounds obtained in Examples 1-29 may be formulated into a finishing liquid having a mass concentration of 0.1-10% using water as a solvent, and the PET cloth may be impregnated and modified by the finishing liquid. After irradiation for 1 minute at ultraviolet light (wavelength: 254 nm), the antibacterial activity against Escherichia coli and Staphylococcus aureus may be tested by plate counting method, and their hydrophilicity (water contact angle of untreated PET may be 92 degrees) may be tested.

[2] = system: Staphylococcus aureus; assay: as above; assay type: cell-based; set-up: Antibacterial activity, Washing one time: concentration or dose not given beside the values; details: S. aureas
Description: as §1

[3] = Hydrophilicity (water contact angle) of modified PET cloth; assay type: physicochemical; details: for Contact angel: water contact angle of PET cloth modified with finishing liquid, UV 254 nm 1 minute, untreated PET 92 degrees
Description: as §1
FIG. 3 illustrates a change in a contact angle of PET cloth treated or untreated by an antibacterial hydrophilic compound according to Example 13 of the present disclosure, where section (A) is a photograph of untreated PET cloth, and section (B) is a photograph of treated PET clot.

[4] = Hydrophilicity (core height) of modified PET cloth, FIG. 5; assay type: physicochemical; details: modified PET cloth (B) vs unmodified PET (A)
Excerpt: FIG. 5 is a diagram illustrating hydrophilicity of PET cloth treated with an antibacterial hydrophilic compound according to Example 1 of the present disclosure.

C[N+](C)(CCCS(=O)(=O)[O-])c1ccc(C(=O)c2ccc([N+](C)(C)CCCS(=O)(=O)[O-])cc2)cc1 [Example 1]
Antibacterial activity, Washing 50 times [1]: 88.5% | Antibacterial activity, Washing one time [1]: 99.99% | Antibacterial activity, Washing 50 times [2]: 92.9% | Antibacterial activity, Washing one time [2]: 99.99% | Contact angel [3]: 0 degrees | core height vs unmodified PET [4]: significantly greater

C[N+](C)(CCCCS(=O)(=O)[O-])CCOc1ccc(C(=O)c2ccccc2)cc1 [Example 2]
Antibacterial activity, Washing 50 times [1]: 86.2% | Antibacterial activity, Washing one time [1]: 99.99% | Antibacterial activity, Washing 50 times [2]: 89.9% | Contact angel [3]: 0 degrees

CCOP(=O)([O-])OCC[N+](C)(C)Cc1ccc(C(=O)c2ccccc2)cc1 [Example 3]
Antibacterial activity, Washing 50 times [1]: 87.8% | Antibacterial activity, Washing one time [1]: 99.99% | Antibacterial activity, Washing 50 times [2]: 90.2% | Antibacterial activity, Washing one time [2]: 99.99% | Contact angel [3]: 0 degrees

C[N+](C)(CCC(=O)[O-])c1ccc(C(=O)Oc2ccc(C(=O)c3ccccc3)cc2)cc1 [Example 4]
Antibacterial activity, Washing 50 times [1]: 86.9% | Antibacterial activity, Washing one time [1]: 99.99% | Antibacterial activity, Washing 50 times [2]: 80.9% | Antibacterial activity, Washing one time [2]: 99.99% | Contact angel [3]: 0 degrees

C[N+](C)(CCS(=O)(=O)[O-])Cc1ccc(C(=O)c2ccccc2)cc1 [Example 6]
Antibacterial activity, Washing 50 times [1]: 86.6% | Antibacterial activity, Washing one time [1]: 99.99% | Antibacterial activity, Washing 50 times [2]: 89.7% | Contact angel [3]: 0 degrees

CCCCCCCC[N+](C)(C)CCOC(=O)Nc1ccc(C(=O)c2ccccc2)cc1.[Br-] [Example 11]
Antibacterial activity, Washing 50 times [1]: 92.8% | Antibacterial activity, Washing one time [1]: 99.99% | Antibacterial activity, Washing 50 times [2]: 99.9% | Antibacterial activity, Washing one time [2]: 99.99% | Contact angel [3]: 0 degrees

CCCCCCCCCCCC[N+](C)(C)c1ccc(C(=O)Oc2ccc(C(=O)c3ccccc3)cc2)cc1 [Example 13]
Antibacterial activity, Washing 50 times [1]: 91.7% | Antibacterial activity, Washing one time [1]: 99.99% | Antibacterial activity, Washing 50 times [2]: 96.9% | Antibacterial activity, Washing one time [2]: 99.99% | water contact angle of the treated PET cloth ([3]; FIG. 3, untreated PET cloth 92 degrees): 0 ° | Contact angel [3]: 0 degrees

CCCCCCCCCCCC[N+](C)(C)Cc1ccc(C(=O)c2ccccc2)cc1 [Example 14]
Antibacterial activity, Washing 50 times [1]: 91.7% | Antibacterial activity, Washing one time [1]: 99.99% | Antibacterial activity, Washing 50 times [2]: 96.9% | Antibacterial activity, Washing one time [2]: 99.99% | Contact angel [3]: 0 degrees

CCCCCCCCCC[N+](C)(C)Cc1ccc(C(=O)c2ccc(C[N+](C)(C)CCCCCCCCCC)cc2)cc1 [Example 15]
Antibacterial activity, Washing 50 times [1]: 96.8% | Antibacterial activity, Washing one time [1]: 99.99% | Antibacterial activity, Washing 50 times [2]: 99.9% | Contact angel [3]: 0 degrees

CCCCCCCCCC[N+](C)(C)Cc1ccc2c(c1)C(=O)c1ccccc1C2=O [Example 16]
Antibacterial activity, Washing 50 times [1]: 91.7% | Antibacterial activity, Washing one time [1]: 99.99% | Antibacterial activity, Washing 50 times [2]: 98.5% | Contact angel [3]: 0 degrees

CCCCCCCCCCCC[N+](C)(C)CCOC(=O)Nc1ccc(C)c(NC(=O)Nc2ccccc2C(=O)c2ccc(Cl)cc2)c1 [Example 18]
Antibacterial activity, Washing 50 times [1]: 95.8% | Antibacterial activity, Washing one time [1]: 99.99% | Antibacterial activity, Washing 50 times [2]: 99.9% | Antibacterial activity, Washing one time [2]: 99.99% | Contact angel [3]: 0 degrees

CCCCCCCC[N+](C)(C)Cc1cn(Cc2ccc(C(=O)c3ccccc3)cc2)nn1 [Example 19]
Antibacterial activity, Washing 50 times [1]: 92.8% | Antibacterial activity, Washing one time [1]: 99.99% | Antibacterial activity, Washing 50 times [2]: 99.6% | Antibacterial activity, Washing one time [2]: 99.99% | Contact angel [3]: 0 degrees

CC1(C)C(=O)N(COC(=O)Nc2ccc(C(=O)c3ccccc3)cc2)C(C)(C)N1Cl [Example 26]
Antibacterial activity, Washing 50 times [1]: 97.9% | Antibacterial activity, Washing one time [1]: 99.99% | Antibacterial activity, Washing 50 times [2]: 99.9% | Contact angel [3]: 45 degrees

CC1(C)C(=O)N(Cc2ccc(C(=O)c3ccccc3)cc2)C(=O)N1Cl [Example 27]
Antibacterial activity, Washing 50 times [1]: 94.9% | Antibacterial activity, Washing one time [1]: 99.99% | Antibacterial activity, Washing 50 times [2]: 99.8% | Contact angel [3]: 50 degrees

CC1(C)C(=O)N(CC(O)CNCc2ccc(C(=O)c3ccccc3)cc2)C(=O)N1Cl (centres unmarked) [Example 28]
Antibacterial activity, Washing 50 times [1]: 95.1% | Antibacterial activity, Washing one time [1]: 99.99% | Antibacterial activity, Washing 50 times [2]: 99.9% | Antibacterial activity, Washing one time [2]: 99.99% | Contact angel [3]: 40 degrees
